Key:
[1] = system: U251 cells; assay: Intracellular localization of ROS 12 hours after ionizing radiation (DCFD, confocal laser scanning microscope), U251; type: cell-based, human; conditions: pre-treatment with 1 mM 5-ALA 4 hours before 10 Gy, 12 hours after irradiation, vs no 5-ALA
Protocol: Intracellular ROS production was detected by our method using DCFD and a confocal laser scanning microscope (LMS5 Pascal; Carl Zeiss, Jena, Germany) (Yamamoto J, Ogura S, Tanaka T, et al: Radiosensitizing effect of 5-aminolevulinic acid-induced protoporphyrin IX in glioma cells in vitro. Oncol Rep 27: 1748-1752, 2012.). Briefly, the cells were seeded in a fresh medium containing 1 mM 5-ALA in a 35-mm glass-bottom culture dish (Asahi Techno Glass, Tokyo, Japan), and were then incubated at 37° C. for 4 hours in a dark room. Thereafter, the cells were washed with PBS, and were then exposed to an ionizing radiation of 10 Gy. Twelve hours after the ionizing irradiation, the cells were washed with PBS twice, and were then incubated together with 10 μM DCFD for 15 minutes. Thereafter, the cells were washed with PBS twice, and immediately after the washing, the resulting cells were observed. DCFD fluorescence (excitation: 488 nm; radiation: 505-530 nm band-pass filter) was imaged on a confocal laser scanning microscope. All procedures were carried out in a dark room.

[2] = system: 9L gliosarcoma cells; assay: Accumulation of ALA-induced PpIX in rat subcutaneous tumor model (HPLC analysis and fluorescence observation); type: in vivo
Protocol: As experimental animals, inbred male Fischer 344 rats (8 week old) (SLC, Inc. (Hamamatsu, Japan)) were used and were inoculated with 9L gliosarcoma cells. […] In short, 9L gliosarcoma cells (1×10^6 cells) were transplanted into the skin on the dorsal side of each Fischer 344 rat, so as to produce a rat subcutaneous tumor model.
Specifically, after the transplanted tumor had grown to a size of 1 cm in diameter, 100 mg/kg body weight of ALA was injected into the caudal vein of each rat (i.v.). Three hours later, the rat was anesthetized, and a tumor portion, excluding a portion covering the dorsal skin, was excised from the rat. The tumor portion was immediately subjected to a freezing treatment using dry ice, and the resultant was then preserved at −80° C. in a dark place.
Specifically, a tumor sample (approximately 1 mm in diameter) was treated with 200 μl of 0.1 M NaOH, and it was then homogenized on ice, using Powermasher II (Assist, Tokyo, Japan). […]
For the elution, Solvent A was used for 5 minutes, then, linear gradient Solvent B (0% to 100%) was used for 25 minutes, and thereafter, Solvent B was used for 10 minutes. The flow rate for elution was maintained at constant, using a fluorospectro-photometer (excited at 404 nm, and detected at 624 nm). […]

[3] = system: U251 cells; assay: Intracellular level of 5-ALA-induced PpIX by flow cytometric analysis, U251; type: cell-based, human; conditions: average±SE
Protocol: (§1) Two types of rat glioma cell lines (9L and C6) and human glioma cell lines (U251 and T98G) were used. Before use, 9L and T98G were cultured in RPMI-1640 at 37° C. for several days, whereas C6 and U251 were cultured in 10% FBS-added Dulbecco's modified Eagle's medium (DMEM) at 37° C. for several days. These cell lines were maintained at 37° C. in 5% CO2 in a humidified incubator. The cells were subcultured at an exponential growth phase thereof, using 0.05% trypsin solution containing 0.5 mM ethylenediamine tetraacetate. 70% confluent cells were used in the subsequent experiments. 5-ALA was dissolved in RPMI-1640 (9L and T98G), or in 10% FBS-added DMEM (C6 and U251), to a final concentration of 1 mM.
(§2) The cells were seeded on a 100-mm culture dish, and were then cultured. The cells were incubated in a complete medium containing 1 mM 5-ALA for 4 hours, and were then washed with PBS. The resulting cells were peeled from the bottom layer by a trypsin treatment, and were then recovered by centrifugation (400×g, 3 min, and 4° C.). Immediately after the recovery, the cells were re-suspended in cold PBS/FBS, and were then analyzed using a flow cytometer (EC800; Sony Biotechnology, Tokyo, Japan). Generally, 30,000 cells contained in each sample were evaluated. Using 488-nm argon ion laser, fluorescence was excited from intracellular PpIX, and the fluorescence was then detected using a 640/30 nm band-pass filter. In order to prevent photoactivation of 5-ALA-induced PpIX, all procedures were carried out in a dark room. The flow cytometric data were analyzed using FlowJo (Tree Star Inc., Ashland, Oreg., USA). The mean fluorescence intensity (MFI) of PpIX fluorescence in the 5-ALA-treated cells, with respect to that of 5-ALA-not-treated cells, was calculated for each cell line.

[4] = system: 9L cells; assay: Intracellular level of 5-ALA-induced PpIX by flow cytometric analysis, 9L; type: cell-based, rat; conditions: average±SE
Protocol: as §1, §2

[5] = system: U251 cells; assay: Cellular ROS levels after ionizing irradiation (DCFD, flow cytometry), U251; type: cell-based, human; conditions: for relative MFI of DCF fluorescence 12 hours after ionizing irradiation, timing study: 10 Gy
Protocol: Intracellular ROS production was evaluated using the oxidant-sensitive fluorescence probe DCFD and flow cytometry (Yamamori T, Yasui H, Yamazumi M, et al: Ionizing radiation induces mitochondrial reactive oxygen species production accompanied by upregulation of mitochondrial electron transport chain function and mitochondrial content under control of the cell cycle checkpoint. Free Radic Biol Med 53: 260-270, 2012.). The cells were seeded on a 100-mm culture dish, and using an X-ray irradiation apparatus (MBR-1520R; Hitachi, Tokyo, Japan) (0.67 Gy/min), the cells were then irradiated with a radiation of 10 Gy in a dark room. During the ionizing irradiation, the culture dish was maintained at a room temperature in a dark container. In the case of a 5-ALA and ionizing irradiation group (RT,12 h+ALA), the cells were treated with 1 mM 5-ALA for 4 hours, then, immediately after the treatment, the cells were irradiated with ionizing radiation, and were then incubated together with 10 μM DCFD at 37° C. for 15 minutes, followed by washing with PBS twice. Thereafter, as described above, the cells were analyzed using a flow cytometer (excitation: 488 nm; radiation: 525/50 nm band-pass filter). Control cells were not exposed to ionizing radiation or 5-ALA. In a 5-ALA group, the cells were treated with 1 mM 5-ALA for 4 hours, but were not exposed to ionizing radiation. The control cells and the cells of the 5-ALA group were treated with DCFD in the same manner as described above. In order to prevent the photoactivation of 5-ALA-induced PpIX and DCFD, all procedures were carried out in a dark room. The flow cytometric data were analyzed using FlowJo (Tree Star Inc., Ashland, Oreg., USA). The MFI of the DCF fluorescence in the cells, with respect to that in control cells, was calculated for each cell line.
The cells were seeded on a 100-mm culture dish, and were then exposed to an ionizing radiation of 10 Gy. The incubation time (4 h) of 1 mM 5-ALA was the same among individual groups, and three types of 5-ALA treatment times were initiated: i) 5-ALA treatment immediately before ionizing irradiation [RT+ALA (pre) group]; ii) 5-ALA treatment immediately after ionizing irradiation [RT+ALA (4 h) group]; and iii) 5-ALA treatment 8 hours after ionizing irradiation [RT+ALA (12 h) group]. In each group, twelve hours after the ionizing irradiation, the cells were incubated together with 10 μM DCFD at 37° C. for 15 minutes, and were then washed with PBS twice. Immediately after the washing, as described above, DCF fluorescence was analyzed using a flow cytometer. Control cells were not treated with ionizing radiation or 5-ALA. In a group involving only ionizing irradiation (RT), the cells were exposed to ionizing radiation, without performing 5-ALA treatments, and were then treated with DCFD twelve hours after the exposure to the ionizing radiation in the same manner as described above. All procedures were carried out in a dark room. The flow cytometric data were analyzed using FlowJo software. The MFI of the DCF fluorescence in the cells, with respect to that in control cells, was calculated for each cell line.

[6] = system: C6 cells; assay: Intracellular level of 5-ALA-induced PpIX by flow cytometric analysis, C6; type: cell-based, rat; conditions: 1 mM 5-ALA for 4 hours, relative to 5-ALA-not-treated cells, average±SE
Protocol: as §1, with “5-ALA was dissolved in RPMI-1640 (9L and T98G), or in 10% FBS-added DMEM (C6 and U251), to a final concentration of 1 mM.” left out
as §2, with “The cells were incubated in a complete medium containing 1 mM 5-ALA for 4 hours, and were then washed with PBS. The resulting cells were peeled from the bottom layer by a trypsin treatment, and were then recovered by centrifugation (400×g, 3 min, and 4° C.).” left out, “In order to prevent photoactivation of 5-ALA-induced PpIX, all procedures were carried out in a dark room.” left out

[7] = 1 mM 5-ALA for 4 hours, relative to 5-ALA-not-treated cells
[8] = 4 hours after ionizing irradiation
[9] = 12 hours after ionizing irradiation
[10] = 24 hours after ionizing irradiation

In the case of `NCC(=O)CCC(=O)O` [ALA, 5-aminolevulinic acid], the “DCF fluorescence in the cytoplasm (confocal)” value [1] is reported as “apparently increased”, the “amount of PpIX in tumor induced by ALA (HPLC)” value ([2]; 3 hours after intravenous administration of ALA 100 mg/kg body weight, mean±SE) is reported as 3.66±0.91 pmol/mg protein and the “fluorescence of subcutaneous tumor under 410 nm light” value ([2]; 3 hours after intravenous administration of ALA, compared with control tumor without ALA) is reported as “strong fluorescence”. The “relative MFI of PpIX fluorescence” value [3, 7] was 37.6±0.12, the “relative MFI of PpIX fluorescence after ionizing irradiation” value [3, 8] was 41.6±0.20 and the “relative MFI of PpIX fluorescence after ionizing irradiation” value [3, 9] was 44.2±3.67. The “relative MFI of PpIX fluorescence after ionizing irradiation” value [3, 10] was 51.1±3.76, the “relative MFI of PpIX fluorescence” value [4, 7] was 21.5±0.12 and the “relative MFI of PpIX fluorescence after ionizing irradiation” value [4, 8] was 15.2±0.15. The “relative MFI of PpIX fluorescence after ionizing irradiation” value [4, 9] was 15.9±0.73, the “relative MFI of PpIX fluorescence after ionizing irradiation” value [4, 10] was 13.4±2.43 and the “relative MFI of DCF fluorescence (cellular ROS)” value ([5]; 1 mM 5-ALA 4 hours, without ionizing irradiation, relative to control cells, average±SE) was 0.87±0.06. The “relative MFI of DCF fluorescence 12 hours after ionizing irradiation, timing study” value (“relative MFI … timing study” for short) ([5]; 5-ALA treatment 8 hours after ionizing irradiation, RT+ALA (12 h) group) was 1.38±0.05, the “relative MFI … timing study” value ([5]; 5-ALA treatment immediately after ionizing irradiation, RT+ALA (4 h) group) was 1.43±0.02 and the “relative MFI … timing study” value ([5]; 5-ALA treatment immediately before ionizing irradiation, RT+ALA (pre) group) was 1.44±0.02. The “relative MFI of DCF fluorescence (cellular ROS)” value ([5]; 12 hours after 10 Gy ionizing irradiation with 5-ALA pre-treatment (1 mM, 4 hours), p=0.031 vs RT 12 h) was 1.51±0.10 and the “relative MFI of PpIX fluorescence” value [6] was 20.2±0.56.
